Measurements published in patent US11098040B2, “Compounds and methods of use” (Ferro Therapeutics, Inc., priority 2018, dated 2021).
Like-named read-outs stand apart in the source and are kept apart here.

Assays:
[1] = Whole blood stability, human; assay type: in vitro ADME
Description: (§1) The results of the assay on stability in blood and IC50 values for pancreatic cancer cell line KP4 are given below in Table 24.

[2] = Whole blood stability, mouse; assay type: in vitro ADME
Description: as §1

KP4 = assay: Cell viability assay (CellTiter Glo), pancreatic ductal adenocarcinoma KP4; assay type: cell-based, human; details: Homo sapiens
Method: (§2) Cell viability assay was performed to assess the potency of the compounds in human cancer cell lines KP4 (pancreatic ductal adenocarcinoma), MiaPaCa-2 (pancreatic carcinoma), AsPC-1 (pancreatic adenocarcinoma, ascites), 143B (osteosarcoma), and SJSA-1 (osteosarcoma). Selected compounds were also assayed in a human breast epithelial cell line MCF-10A, a nontumorigenic cell line as a control to assess differential activity. Cells at a density of 500-5,000 cells/well were seeded in 96-well plates and incubated at 37° C. overnight. A series of 9 different concentrations of compound stocks (500×) were created by 3-fold serial dilution in DMSO. These compounds were further diluted in culture media and then added to cells so that the final DMSO concentration was equal to 0.25% or less. After 96 hours of incubation, 50 μL of CellTiter Glo reagent (Promega) was added to each well and luminescence was measured after 10 minutes using EnVision (PerkinElmer). Compounds titrated from top concentration of up to 30 μM. The select compounds were tested initially from 30 μM as the top concentration in duplicates (range of 4.6 nM-30 μM). […] Luminescence from cells treated with DMSO alone was set as Max and % of inhibition was calculated as follows: Inhibition %=(Max-Sample value)/Max*100. Data was analyzed using XL-fit software (ID Business Solutions Ltd.). IC50, relative IC50, or % of top inhibition was calculated.
as §2, with “in” for “in human”, “line” for “lines”, “adenocarcinoma).” for “adenocarcinoma), MiaPaCa-2 (pancreatic carcinoma), AsPC-1 (pancreatic adenocarcinoma, ascites), 143B (osteosarcoma), and SJSA-1 (osteosarcoma). Selected compounds were also assayed in a human breast epithelial cell line MCF-10A, a nontumorigenic cell line as a control to assess differential activity.”, “1,000-10,000” for “500-5,000”, “All” for “Compounds titrated from top concentration of up to 30 μM. The select”
as §1

[3] = KP-4, 96 h, pancreatic cancer cell line KP4, 96 hours, CellTiter Glo, read-out: IC50 μM KP4
[4] = KP-4, Cell Line KP4, read-out: IC50

SMILES | Whole Blood Stability % Remaining at 37° C. Human ([1]; 0 min) | Whole Blood Stability % Remaining at 37° C. Human ([1]; 30 min) | Whole Blood Stability % Remaining at 37° C. Human ([1]; 60 min) | Whole Blood Stability % Remaining at 37° C. Mouse ([2]; 0 min) | Whole Blood Stability % Remaining at 37° C. Mouse ([2]; 30 min) | Whole Blood Stability % Remaining at 37° C. Mouse ([2]; 60 min) | IC50 (KP4; [3]) | IC50 (KP4; [4])
COC(=O)[C@H]1Cc2c([nH]c3ccccc23)[C@H](c2ccc(C(=O)NC(C(=O)O)C(C)(C)C)cc2)N1C(=O)CCl (single isomer, unassigned) [Compound 10] | 100.0% | 84.0% | 54.3% | 100.0% | 82.2% | 65.0% | 0.5 to 1 µM | 
C#CCOC(=O)c1ccc([C@@H]2c3[nH]c4ccccc4c3C[C@H](C(=O)OC)N2C(=O)CCl)cc1 [BXa] | 100.0% | 95.7% | 46.8% | 100.0% | 0.0% | 0.0% | 0.01 to 0.1 µM | 
COC(=O)[C@H]1Cc2c([nH]c3ccccc23)[C@H](c2ccc(C(=O)OC(C)(C)C)cc2)N1C(=O)CCl [Compound 1] | 100.0% | 60.5% | 43.0% | 100.0% | 59.6% | 46.6% | < 0.01 µM | 
COC(=O)c1ccc([C@H]2c3[nH]c4ccccc4c3C[C@H](C(=O)OC(C)(C)C)N2C(=O)CCl)cc1 [Compound 2] | 100.0% | 58.5% | 39.4% | 100.0% | 0.1% | 0.1% | 0.01 to 0.1 µM | 
COC(=O)c1ccc([C@H]2c3[nH]c4ccccc4c3C[C@H](C(=O)O)N2C(=O)CCl)cc1 [Compound 3] | 100% | 43.0% | 29.4% | 100% | 51.3% | 23.6% | > 1 µM | 
COC(=O)[C@H]1Cc2c([nH]c3ccccc23)[C@H](c2ccc(C(=O)O)cc2)N1C(=O)CCl [Compound 4] | 100.0% | 59.3% | 57.9% | 100.0% | 76.6% | 63.9% | > 1 µM | 
O=C(O)c1ccc([C@H]2c3[nH]c4ccccc4c3C[C@H](C(=O)O)N2C(=O)CCl)cc1 [Compound 5] | 100.0% | 106.3% | 82.0% | 100.0% | 86.3% | 67.9% | > 1 µM | 
COC(=O)[C@H]1Cc2c([nH]c3ccccc23)[C@H](c2ccc(C(=O)OC[C@]34C[C@H]5C[C@H](C[C@H](C5)C3)C4)cc2)N1C(=O)CCl [Compound 6] | 100.0% | 54.8% | 33.0% | 100.0% | 12.4% | 4.7% | 0.01 to 0.1 µM | 
CNC(=O)c1ccc([C@H]2c3[nH]c4ccccc4c3C[C@H](C(=O)OC)N2C(=O)CCl)cc1 [Compound 7] | 100.0% | 60.1% | 44.5% | 100.0% | 68.2% | 48.6% | 0.01 to 0.1 µM | 
COC(=O)[C@H]1Cc2c([nH]c3ccccc23)[C@H](c2ccc(C(=O)N(C)C)cc2)N1C(=O)CCl [Compound 8] | 100.0% | 52.0% | 26.5% | 100.0% | 53.0% | 30.5% | < 0.01 µM | 
COC(=O)[C@H]1Cc2c([nH]c3ccccc23)[C@H](c2ccc(C(=O)NC(C)(C)C)cc2)N1C(=O)CCl [Compound 9] | 100.0% | 53.8% | 47.0% | 100.0% | 61.9% | 40.6% | < 0.01 µM | 
CC(C)(C)OC(=O)[C@H]1Cc2c([nH]c3ccccc23)[C@H](c2ccc([N+](=O)[O-])cc2)N1C(=O)CCl [Compound 11] | 100.0% | 67.1% | 59.9% | 100.0% | 56.9% | 38.6% | 0.01 to 0.1 µM | 
COC(=O)[C@H]1Cc2c([nH]c3ccccc23)[C@H](c2ccc(OC(C)=O)cc2)N1C(=O)CCl [Compound 12] | 100.0% | 0.0% | 0.1% | 100.0% | 0.0% | 0.0% | 0.01 to 0.1 µM | 
COC(=O)[C@H]1Cc2c([nH]c3ccccc23)[C@H](c2ccc(OC(=O)C(C)(C)C)cc2)N1C(=O)CCl [Compound 13] | 100.0% | 34.9% | 29.2% | 100.0% | 0.0% | 0.0% | 0.1 to 0.5 µM | 
COC(=O)[C@H]1Cc2c([nH]c3ccccc23)[C@@H](c2ccc(OC(=O)C(C)(C)C)cc2)N1C(=O)CCl [Compound 13a] | 100.0% | 56.6% | 59.9% | 100.0% | 0.0% | 0.0% | 0.5 to 1 µM | 
CN(C)C(=O)[C@H]1Cc2c([nH]c3ccccc23)[C@@H](c2ccc(C(=O)OC(C)(C)C)cc2)N1C(=O)CCl [Compound 21a] |  |  |  |  |  |  | 0.1 to 0.5 µM | 
CN(C)C(=O)[C@H]1Cc2c([nH]c3ccccc23)[C@H](c2ccncc2)N1C(=O)CCl [Compound 50] |  |  |  |  |  |  | 0.1 to 0.5 µM | 
[2H]C([2H])(Cl)C(=O)N1[C@@H](c2ccc(C(=O)OC)cc2)c2[nH]c3ccccc3c2C[C@@H]1C(=O)OC [Compound 90] |  |  |  |  |  |  | < 0.01 µM | 
C[C@H]1Cc2c([nH]c3ccccc23)[C@@H](c2ccc(N3CCN(C)CC3)cc2)N1C(=O)OCl [Compound 105] |  |  |  |  |  |  | 0.5 to 1 µM | 
C[C@H]1Cc2c([nH]c3ccccc23)[C@H](c2ccc([Si](C)(C)C)cc2)N1C(=O)CCl [Compound 106] |  |  |  |  |  |  | < 0.01 µM | 
C[C@H]1Cc2c([nH]c3ccccc23)[C@@H](c2ccc([Si](C)(C)C)cc2)N1C(=O)CCl [Compound 107] |  |  |  |  |  |  | > 1 µM | 
C[C@H]1Cc2c([nH]c3ccccc23)[C@H](c2ccc(C3CC3)cc2)N1C(=O)CCl [Compound 108] |  |  |  |  |  |  | < 0.01 µM | 
[2H]C([2H])(Cl)C(=O)N1[C@@H](c2ccc(S(=O)(=O)NC34CC5CC(CC(C5)C3)C4)cc2)c2[nH]c3ccccc3c2C[C@@H]1C(=O)OC [Compound 251] |  |  |  |  |  |  |  | 0.0065 µM
COC(=O)c1ccc([C@H]2c3[nH]c4ccc(OC)cc4c3C[C@H](C(=O)OC)N2C(=O)CCl)cc1 [Compound 277] |  |  |  |  |  |  |  | 0.036 µM
